Results on three compounds are retold here after US10730825B2, “Methods for the treatment of diabetic retinopathy and other ophthalmic diseases” (Acucela Inc., priority 2012, dated 2020).

In assay [1] the test system is retinal cationic activity (Mn2+ uptake). As to the kind of experiment: Manganese-enhanced MRI (MEMRI) single dose study. The conditions noted are these: rats, Mn2+ uptake by MRI.
Description: Rats are to be maintained in regular laboratory lighting (12 hours light, 12 hours dark) prior to start of experimental period—light exposure, bleaching, dark adaption will vary by cohort (see below).
Animals are to be dosed by oral gavage according to group assignment below. Rats are to be weighed each week of the experimental period.
Dilate pupils by applying 1 drop of tropicamide (0.5%) 10-30 minutes before photobleaching. Photobleach animals for 10 minutes by exposure to 5000 lux 4 hours before MRI imaging.
Inject rats immediately after bleach, 4 hours prior to the start of imaging session. MEMRI signal reflects state of expression of activity-dependent channels during experimental period.
Keep rats in dark (IOP room) during the 4 hours between injection and transport to the imaging center for practice experiments for all groups except group 4. Keep animals from group 4 exposed to light during 4 hours between MnCl2 injection and MRI imaging. Otherwise follow light-dark-bleaching cycle described for each cohort.
A snapshot FLASH inversion recovery (IR) imaging sequence is used to acquire a single imaging slice bisecting the retina in the axial and sagittal planes, using a 12 mm inner diameter linear surface coil. […] The approximate scan time per animal is ˜16 minutes. […]
Assay [2] concerns VEGF. Description: VEGF up-regulation caused by hypoxic conditions. The class given is in vivo. The conditions noted are these: for VEGF mRNA levels: compared to vehicle control. As for the experimental part: FIG. 8 depicts a protocol used to test if ACU-4935 reduced VEGF up-regulation caused by hypoxic conditions. Briefly, animals were adapted for dark for 16 hours, then dosed with ACU-4935. Animals were photobleached for 10 minutes with 50000 Lux 2 hours after being dosed, followed by a 2 hour recovery in the dark. Hypoxia was induced with 6% O2 for 6 hours. A portion of the animals were euthanized and samples were collected at time 0. Another portion of the animals were returned to the dark for 2 more hours prior to being euthanized and sample collection.
Samples were tested for VEGF protein (FIG. 9) and mRNA expression (FIG. 10).

For assay [3], the system named is retinal neovascularization. Description: Retinal neovascularization in mouse model of oxygen-induced retinopathy (OIR). The following applies: OIR mice; for Retinal neovascular area reduced: 4 days.
Description: Pups were euthanized on P17, when neovascularization was maximal and eyes were removed for analysis.
Areas of retinal neovascularization were visualized with isoelectin staining of flatmount preparations and quantified with the lasso tool in Adobe Photoshop; total area of neovascularization indicated the sum of individual areas across the retina, and % neovascularization was relative to the total area of the retina^4.
Statistical analyses were performed using GraphPad Prism software.
Assay [4] concerns the target T1, visual cycle isomerase (Mus musculus, UniProt Q91ZQ5).
T1 sequence (Q91ZQ5 1-533): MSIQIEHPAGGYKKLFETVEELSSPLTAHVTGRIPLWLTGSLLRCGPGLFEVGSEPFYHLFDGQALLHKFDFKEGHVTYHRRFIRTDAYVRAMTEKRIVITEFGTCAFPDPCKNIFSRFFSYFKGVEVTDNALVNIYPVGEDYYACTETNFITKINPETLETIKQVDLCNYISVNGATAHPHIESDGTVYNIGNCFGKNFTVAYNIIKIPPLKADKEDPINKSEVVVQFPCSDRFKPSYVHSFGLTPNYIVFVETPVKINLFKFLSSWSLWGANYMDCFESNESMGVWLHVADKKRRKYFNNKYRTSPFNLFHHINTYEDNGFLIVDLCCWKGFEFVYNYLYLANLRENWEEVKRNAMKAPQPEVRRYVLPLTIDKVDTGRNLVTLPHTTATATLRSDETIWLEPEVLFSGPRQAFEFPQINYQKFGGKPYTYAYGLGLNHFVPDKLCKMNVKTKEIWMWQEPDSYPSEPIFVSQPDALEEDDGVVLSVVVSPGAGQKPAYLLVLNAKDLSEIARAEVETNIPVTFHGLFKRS
As to the kind of experiment: in vivo isomerase assay single dose, mice.

Assay [5] addresses T2, visual cycle isomerase (Homo sapiens, UniProt Q16518).
T2 sequence (Q16518 1-533): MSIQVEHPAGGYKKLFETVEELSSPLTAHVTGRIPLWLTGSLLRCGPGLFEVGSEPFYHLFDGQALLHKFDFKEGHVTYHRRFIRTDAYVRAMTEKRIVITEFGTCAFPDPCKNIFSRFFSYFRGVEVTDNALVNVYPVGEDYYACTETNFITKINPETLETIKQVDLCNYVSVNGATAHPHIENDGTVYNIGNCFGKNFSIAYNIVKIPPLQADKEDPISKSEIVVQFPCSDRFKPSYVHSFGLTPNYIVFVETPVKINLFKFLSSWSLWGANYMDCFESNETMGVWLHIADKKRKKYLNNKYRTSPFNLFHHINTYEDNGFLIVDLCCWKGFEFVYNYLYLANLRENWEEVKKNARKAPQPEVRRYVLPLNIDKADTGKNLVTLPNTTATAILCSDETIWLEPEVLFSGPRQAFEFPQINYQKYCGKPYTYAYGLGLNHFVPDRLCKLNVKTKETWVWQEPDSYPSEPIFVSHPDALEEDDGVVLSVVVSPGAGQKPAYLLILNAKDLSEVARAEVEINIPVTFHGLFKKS
Description: in vitro isomerase activity. The class given is biochemical.

In the case of `CC(=O)NCC=C(C)C=CC=C(C)C=CC1=C(C)CCCC1(C)C` [Retinyl acetamide], the “Retinal behaviour after bleach and dark adaptation (expectation)” value in assay [1] is “behave as if they were light adapted”.

Broadly, the ED50 is the midpoint of the dose-response relation. A low value points to greater potency. As a reminder, the IC50 is the concentration that inhibits the measured activity by half. Read a low IC50 as higher potency. Regarding `CCCC(CCC)COc1cccc([C@H](O)CCN)c1` [ACU-4935, (R)-3-amino-1-(3-(2-propylpentyloxy)phenyl)propan-1-ol], the “VEGF mRNA levels” value is reported as “slightly increased” in assay [2] (2 hours post-hypoxia) and “decreased” in assay [2] (time 0 after hypoxia). Also, the VEGF protein expression result in assay [2] (after 6% O2 for 6 hours, vs vehicle) is “Slight differences”. The “Retinal neovascular area reduced” value in assay [3] (0.3 mg/kg/day intraperitoneal, vs vehicle) stood at 23%. In addition, the “Retinal neovascular area compared to treatment with vehicle” value in assay [3] is reported as “significantly reduced”. The compound also came in with an ED50 in assay [4] of 0.4 µg/kg. This compound also showed an IC50 in assay [5] of 5.2 nM.

In the case of `CN(C)C[C@@H]1CCn2cc(c3ccccc32)C2=C(C(=O)NC2=O)c2cn(c3ccccc23)CCO1` [Ruboxistaurin, reference compound], the “Retinal neovascular area reduced” value in assay [3] (10 mg/kg/day intraperitoneal, positive control) came to 29%.
